# According to patent US3969385A, “Ethyl 10-methoxy-3,7,11-trimethyldodeca-2,4-dienoate” (Zoecon Corporation, priority 1974, dated 1976):
# Tests used:
# Type in all cases: in vivo
# [1] = tested on: Tobacco budworm (Heliothis virescens) larvae; assay: Tobacco budworm (Heliothis virescens) larvae, diet test, morphogenetic scoring; conditions: for ID50: Heliothis virescens unfed first instar larvae, compound mixed in diet, 25°, 16 hr photophase; for Heliothis ID50: Table 1 summary, in diet
# Protocol: Tobacco budworm (Heliothis virescens) larvae were reared in mass culture on a modified Van der Zandt artificial diet based on agar, lima beans, split peas, torula yeast plus vitamins, minerals and bacteriostatic additives. Compounds to be tested were mixed as acetone solutions with this diet while it was still warm and not yet solidified (7.5 ml. of medium in 15 ml. tubes). Unfed first instar larvae were collected from the mass rearing and distributed in the glass tubes (one larva per tube, 15 tubes per dose level). The tubes with larvae were then capped with a firm cotton plug and placed on racks in a culture room at 25° and 16 hr photophase (low intensity fluorescent light). The normal interval until pupation under these conditions was ca. 16 days.
# Individual specimens were preserved in ethanol within a few days after pupation and stored until the entire series was thus preserved. The test results were then evaluated with the following scoring system: 0= normal pupa; 1=pupa of normal shape and appearance except for very minor abnormalities such as minute rudiments of larval mouthparts, larval tubercles, etc. The ultimate viability of these pupa was not investigated; 2=unviable intermediates between larvae and pupae ranging from almost perfect supernumerary larval instars (frequently with some pupal cuticle on the antennae only) to pupae with pronounced prolegs, patches of larval cuticle, etc. […] The results were added and expressed as a percentage of the possible total. ID50 doses were determined by interpolation on semilogarithmic paper. Dead larvae were generally excluded from the score, unless death was obviously a consequence of morphogenetic abnormalities and the specimens could be scored as above.
# [2] = tested on: Philosamia cynthia eggs; assay: Philosamia cynthia eggs, hatch prevention; conditions: Table 1 summary
# Protocol: Philosamia cynthia eggs less than 24-hours old were removed from the colony and placed on black electrical tape, 15 eggs per tape. One microliter of acetone solution containing […] of compound was applied to each egg. The control eggs were treated only with acetone. The eggs were kept at 28°C for 10 days at which time the number of eggs hatched was observed and plotted against the dosed on semilogarithmic paper. The ID50 dose is taken from the intersection of this plotted line with the 50% hatch prevented line.
# [3] = tested on: Greater Wax Moth (Galleria mellonella) pupae; assay: Greater Wax Moth (Galleria mellonella) pupae, retention of pupal characters (graded-response score); conditions: for ID50: Galleria mellonella pupae <24 h old, 1 μl acetone solution applied to mouth-parts, scored after 10 days at 31°, 50% effect level; for Galleria ID50: Table 1 summary
# Protocol: Greater Wax Moth (Galleria mellonella) pupae less than 24-hours old were collected after mature larvae from a mass colony were allowed to pupate in glass tubes treated with Siliclad solution (modification of a technique described by De Wilde et al., 1968) and then freed of the cocoon with a dilute Chlorox solution. Starvation of mature larvae was employed to produce highly synchronous pupation. One microliter of acetone solution containing 100, 10, 1, 0.1, 0.01, or 0.001μg of compound was applied to the mouth-parts of each test pupa. In each test series, the control pupae were treated only with 1 microliter of acetone. Treated pupae were allowed to develop for 10 days at 31° and then scored for both retention of pupal characters and adult emergence. For the retention of pupal characters, the following scoring system was used: 0=normal adult; 1=minor pupal rudimentary mandibles only; 2=as in 1, but also pupal cuticle patches at the base of the proboscis; 3=extensive pupal cuticle formation at base of proboscis, slight pupal characters in intersegmental membranes in legs; 4=proboscis entirely pupal, larger than normal, legs with extensive pupal zones; 5=merging pupal bands on legs, specimen with only a few adult setae, essentially "a second pupa."
# The graded-response score was calculated as a percentage of the maximum attainable (n×5) and plotted against the dose on semilogarithmic paper. The ID50 dose is taken from the intersection of this plotted line with the 50% effect level.
SMILES,ID50 [1] [parts per million],Heliothis ID50 [1] [ppm],Cynthia ID50 [2] [μg/egg],ID50 [3] [μg per pupa],Galleria ID50 [3] [μg/pupa]
"CCOC(=O)C=C(C)C=CCC(C)CCC(OC)C(C)C (stereo not shown) [ethyl 10-methoxy-3,7,11-trimethyldodeca-2,4-dienoate]",0.024,0.024,0.000032,0.0030,0.0030
"CCOC(=O)C=C(C)C=CCC(C)CCCC(C)(C)OC (stereo not shown) [ethyl 11-methoxy-3,7,11-trimethyldodeca-2,4-dienoate]",0.340,0.340,0.00077,0.180,0.180
